Measurements reported in patent US20240189440A1, “TLR7 AND TLR8 AGONISTS FOR THE TREATMENT OF CANCER AND/OR INFECTIOUS DISEASES” (priority 2021, published 2024).

Assays:
[1] = test system: NFκB induction (SEAP) in Ramos-blue cells; test: NFkB activation in Ramos-Blue cells for additional TLR7 agonists (Example 31); type: cell-based; conditions: for EC (2-fold SEAP signal): lowest concentration that doubles the SEAP background (nontreated) signal, read-out: Lowest concentration to induce 2x SEAP; for Fold increase in SEAP signal at lowest active concentration: versus nontreated background
Experimental: A 3× serial dilution was performed in 10% DMSO in PBS for each payload to have a final range of concentration from 1000 uM to 76 nM. Ramos-blue cells (InvivoGen, cat #rms-sp) were cultured using high glucose DMEM media supplied with 10% fetal bovine serum according to the manufacturer guidelines. The media was supplemented with 50 U/mL penicillin, 50 ug/mL streptomycin, and 100 ug/mL normocin to prevent bacterial contamination. The cell density and viability were calculated using a Countess Cell Counter and the proper volume of cells was removed in order to have a seeding density of 0.2×10^6 cells/mL per well. 135 uL of the cell suspension was added to each well in a 96-well plate along with 15 uL of the corresponding payload treatment. Each assay point was run in triplicate and the plate was incubated at 37° C. with 5% CO2 for 24 or 72 hours. In order to assess the NFκB induction, the QUANTI-Blue™ solution was prepared by adding 200 uL of QB reagent (InVivogen cat #rep-qbs) and 200 uL of QB buffer to 19.6 mL of water. The resulting solution was vortexed and incubated at room temperature for ten minutes. The 96-well plate was centrifuged at 1990 rpm for ten minutes and 40 uL of the cell supernatant was added to 160 uL of the prepared QUANTI-Blue™ solution. The QB reaction plate was incubated at 37° C. for 24 hours. The plate was read using the Molecular Devices i3x plate reader at a wavelength of 630 nm to determine the amount of SEAP production. The table below illustrates the lowest concentration of each compound that results in a doubling of the SEAP background (nontreated) signal. As illustrated, compounds of the invention ranged from low nM to low micromolar.

[2] = test system: NFκB pathway in Ramos-blue cells; test: Ramos-Blue NFκB/SEAP reporter assay with cysteine-capped linker-payloads, 72 h (Example 15); type: cell-based; conditions: cysteine-capped, 72 hours, SEAP at 630 nm, read-out: Relative Activation; for activation at 5 µM: Linker-Payload Dose 5 uM; for activation at 50 µM: Linker-Payload Dose 50 uM
Experimental: A 50 mM cysteine stock was prepared in 0.1 M PBS pH 7.4. 10 equivalents of 50 mM cysteine were added to 1 equivalent of linker-payload to create a 2.50 mM solution. The reaction was vortexed and sat at room temperature for an hour to allow for the Michael addition to occur. After an hour, an aliquot was taken and run via UPLC-MS to ensure for the complete Michael reaction. The reaction was diluted to 1 mM using 0.1M PBS pH 7.4. The 1 mM solution was diluted to 500 uM and 50 uM in a 96-well plate to afford a final concentration of 50 uM and 5 uM in the cell suspension. The cell density and viability were calculated using the Countess Cell Counter and the proper volume of cells was removed in order to have a seeding density of 0.2×10^6 cells/mL per well. 135 uL of cell suspension was added to each well in a 96-well plate along with 15 uL of the corresponding linker-payload treatment. Each concentration was run in triplicate and incubated at 37° C. with 5% CO2 for 72 hours.
Invivogen's QUANTI-Blue™ solution was prepared by adding 200 uL of QB reagent and 200 uL of QB buffer to 19.6 mL of water. The resulting solution was vortexed and incubated at room temperature for ten minutes. The 96-well plate was centrifuged at 1990 rpm for ten minutes. Then, 40 uL of cell supernatant was added to 160 uL of the prepared QUANTI-Blue™ solution and incubated at 37° C. for 24 hours. The plate was read using the Molecular Devices i3x plate reader at a wavelength of 630 nm to determine the amount of SEAP production.

Compound | EC (2-fold SEAP signal) [1] | Fold increase in SEAP signal at lowest active concentration [1] | activation at 5 µM [2] | activation at 50 µM [2]
CCCCc1nc2c(N)nc3ccccc3c2n1Cc1ccc(NC(=O)CCCNC(=O)OC(C)(C)C)cc1 [20c, tert-butyl(4-((4-((4-amino-2-butyl-1H-imidazo[4,5-c]quinolin-1-yl)methyl)phenyl)amino)-4-oxobutyl)carbamate] | 0.0076 µM | 2.352 |  | 
CCCCc1nc2c(N)nc3ccccc3c2n1Cc1ccc(NC(=O)CCCCNC(=O)OC(C)(C)C)cc1 [20d, tert-butyl(5-((4-((4-amino-2-butyl-1H-imidazo[4,5-c]quinolin-1-yl)methyl)phenyl)amino)-5-oxopentyl)carbamate] | 0.0076 µM | 2.222 |  | 
CCCCc1nc2c(N)nc3ccccc3c2n1Cc1ccc(NC(=O)CCCCCNC(=O)OC(C)(C)C)cc1 [20e, tert-butyl(6-((4-((4-amino-2-butyl-1H-imidazo[4,5-c]quinolin-1-yl)methyl)phenyl)amino)-6-oxohexyl)carbamate] | 0.069 µM | 2.983 |  | 
CCCCc1nc2c(N)nc3ccccc3c2n1Cc1ccc(NC(=O)CN)cc1 [20f, 2-amino-N-(4-((4-amino-2-butyl-1H-imidazo[4,5-c]quinolin-1-yl)methyl)phenyl)acetamide] | 0.069 µM | 2.225 |  | 
CCCCc1nc2c(N)nc3ccccc3c2n1Cc1ccc(NC(=O)CCN)cc1 [20g, 3-amino-N-(4-((4-amino-2-butyl-1H-imidazo[4,5-c]quinolin-1-yl)methyl)phenyl)propanamide] | 0.62 µM | 2.638 |  | 
CCCCc1nc2c(N)nc3ccccc3c2n1Cc1ccc(NC(=O)CCCCCN)cc1 [20j, 6-amino-N-(4-((4-amino-2-butyl-1H-imidazo[4,5-c]quinolin-1-yl)methyl)phenyl)hexanamide] | 0.21 µM | 2.802 |  | 
CCCCC(=O)Nc1ccc(Cn2c(CCCC)nc3c(N)nc4ccccc4c32)cc1 [20k, N-(4-((4-amino-2-butyl-1H-imidazo[4,5-c]quinolin-1-yl)methyl)phenyl)pentanamide] | 0.0076 µM | 2.398 |  | 
CCCCc1nc2c(N)nc3ccccc3c2n1Cc1ccc(NC(C)=O)cc1 [20l, N-(4-((4-amino-2-butyl-1H-imidazo[4,5-c]quinolin-1-yl)methyl)phenyl)acetamide] | 0.023 µM | 2.11 |  | 
CCCCc1nc2c(N)nc3ccccc3c2n1Cc1ccc(NC(=O)OCC)cc1 [20m, ethyl (4-((4-amino-2-butyl-1H-imidazo[4,5-c]quinolin-1-yl)methyl)phenyl)carbamate] | 0.023 µM | 3.188 |  | 
CCCCc1nc2c(N)nc3ccccc3c2n1Cc1ccc(NC(=O)OC(C)C)cc1 [20n, Isopropyl (4-((4-amino-2-butyl-1H-imidazo[4,5-c]quinolin-1-yl)methyl)phenyl)carbamate] | 0.0076 µM | 1.925 |  | 
CCCCOC(=O)Cc1ccc(Cn2c(CCCC)nc3c(N)nc4ccccc4c32)cc1 [20o, Butyl 2-(4-((4-amino-2-butyl-1H-imidazo[4,5-c]quinolin-1-yl)methyl)phenyl)acetate] | 0.069 µM | 4.158 |  | 
CCCCc1nc2c(N)nc3ccccc3c2n1Cc1cccc(OC)c1 [21e, 2-butyl-1-(3-methoxybenzyl)-1H-imidazo[4,5-c]quinoline-4-amine] | 0.62 µM | 5.753 |  | 
CCCCc1nc2c(N)nc3ccccc3c2n1Cc1cccc(O)c1 [21f, 3-((4-amino-2-butyl-1H-imidazo[4,5-c]quinolin-1-yl)methyl)phenol] | 0.21 µM | 2.902 |  | 
CCCCc1nc2c(N)nc3ccccc3c2n1Cc1ccc(OC)cc1 [22e, 2-butyl-1-(4-methoxybenzyl)-1H-imidazo[4,5-c]quinolin-4-amine] | 0.21 µM | 2.537 |  | 
CCCCc1nc2c(N)nc3ccccc3c2n1Cc1ccc(O)cc1 [22f, 4-((4-amino-2-butyl-1H-imidazo[4,5-c]quinolin-1-yl)methyl)phenol] | 0.069 µM | 2.269 |  | 
CCCCc1nc2c(N)nc3ccccc3c2n1Cc1cccc(NC(=O)OC(C)(C)C)c1 [23e, Tert-butyl (3-((4-amino-2-butyl-1H-imidazo[4,5-c]quinoline-1-yl)methyl)phenyl)carbamate] | 1.87 µM | 4.344 |  | 
CCCCc1nc2c(N)nc3ccccc3c2n1Cc1cccc(N)c1 [23f, 1-(3-aminobenzyl)-2-butyl-1H-imidazo[4,5-c]quinoline-4-amine] | 0.023 µM | 1.946 |  | 
CCCCc1nc2c(N)nc3ccccc3c2n1Cc1ccc(CNC(=O)CCCCCN2C(=O)C=CC2=O)cc1 [Mc_E66, N-(4-((4-amino-2-butyl-1H-imidazo[4,5-c]quinolin-1-yl)methyl)benzyl)-6-(2,5-dioxo-2,5-dihydro-1H-pyrrol-1-yl)hexanamide] |  |  | 119% | -52.3%
CCCCc1nc2c(N)nc3ccccc3c2n1Cc1ccc(NC(=O)CCCCCN2C(=O)C=CC2=O)cc1 [Mc_E104, N-(4-((4-amino-2-butyl-1H-imidazo[4,5-c]quinolin-1-yl)methyl)phenyl)-6-(2,5-dioxo-2,5-dihydro-1H-pyrrol-1-yl)hexanamide] |  |  | 704% | -52%
CCOCc1nc2c(NC(=O)CCCCCN3C(=O)C=CC3=O)nc3ccccc3c2n1CC(C)(C)O [Mc_Resiquimod, 6-(2,5-dioxo-2,5-dihydro-1H-pyrrol-1-yl)-N-(2-(ethoxymethyl)-1-(2-hydroxy-2-methylpropyl)-1H-imidazo[4,5-c]quinolin-4-yl)hexanamide] |  |  | 17.6% | -21%
CCCCc1nc2c(N)nc3ccccc3c2n1Cc1ccc(CNC(=O)OCc2ccc(NC(=O)C(CCCNC(N)=O)NC(=O)C(NC(=O)CCCCCN3C(=O)C=CC3=O)C(C)C)cc2)cc1 (stereo not shown) [Mc_ValCitPABC_E66, 4-(2-(2-(6-(2,5-Dioxo-2,5-dihydro-1H-pyrrol-1-yl)hexanamido)-3-methylbutanamido)-5-ureidopentanamido)benzyl 4-((4-amino-2-butyl-1H-imidazo[4,5-c]quinolin-1-yl)methyl)benzylcarbamate] |  |  | 7.15% | -19.7%
CCCCc1nc2c(N)nc3ccccc3c2n1Cc1ccc(NC(=O)OCc2ccc(NC(=O)C(CCCNC(N)=O)NC(=O)C(NC(=O)CCCCCN3C(=O)C=CC3=O)C(C)C)cc2)cc1 (stereo not shown) [Mc_ValCitPABC_E104, 4-(2-(2-(6-(2,5-dioxo-2,5-dihydro-1H-pyrrol-1-yl)hexanamido)-3-methylbutanamido)-5-ureidopentanamido)benzyl 4-((4-amino-2-butyl-1H-imidazo[4,5-c]quinolin-1-yl)methyl)phenylcarbamate] |  |  | 12.7% | -19.2%
(3-((4-((4-amino-2-butyl-1H-imidazo[4,5-c]quinolin-1-yl)methyl)phenyl)amino)-3-oxopropyl)carbamate [20b] | 0.0076 µM | 4.416 |  | 
